Experimental data reported in article PMC11053488, “Influence of Aza-Glycine Substitution on the Internalization of Penetratin” (Pharmaceutics, 2024).

Experiments:
[1] = tested on: A-431 cells; assay: Cellular uptake of Cf-labelled peptides by flow cytometry; assay type: cell-based; conditions: 5 µM, 90 min, 37 °C, compared with Pen(desMet)
Method: The cells were treated with a solution of peptides at 5 µM concentration at 37 °C for 90 min. The measured fluorescence values were corrected with the autofluorescence of the untreated cells. To determine the toxicity of the conjugates, the live/dead cell ratio was calculated.
Figure 2 Comparison of the cellular uptake of the labelled penetratin derivatives into A-431 cells. Cells were incubated with 5 µM peptide solution for 90 min at 37 °C. The fluorescence intensity of the cells was determined by flow cytometry. The fluorescence intensity is relative to Pen(desMet) at 5 µM (100%). Data represent the mean ± standard deviation (SD). Any significant difference to the control was measured using the Student’s t test.

[2] = tested on: A-431 cells; assay: Cellular uptake after pretreatment with endocytosis inhibitors or ATP depletion, flow cytometry; conditions: then peptide 5 µM 90 min; for Cellular uptake with NaN3 and DOG, % of the untreated control: NaN3 500 µM and 2-deoxyglucose 250 mM pretreatment 30 min (ATP depletion), mean
Method: The cells were incubated for 24 h at 37 °C. The cells were treated with a serum-free medium as a negative control and with peptide solutions in 5 µM concentration in a serum-free medium for 90 min. After the incubation, the cells were washed, and 100 µL of trypsin was applied for 10 min to eliminate peptides adhered to the membrane and to detach the cells from the plates. Trypsin activity was stopped by adding 800 µL of HPMI buffer (glucose, NaHCO3, NaCl, HEPES, KCl, MgCl2, CaCl2, Na2HPO4·2H2O) containing 10% fetal bovine serum. Cells were then transferred from the plates to FACS tubes. Centrifugation of the cells took place at 216× g at 4 °C for 5 min, and the supernatant was removed. Resuspension of the cells was performed by 250 µL HPMI, followed by fluorescence intensity measurements using a flow cytometer (BDLSR II, BD Bioscience, San Jose, CA, USA). The analysis of the data was performed using FACSDiVa 5.0 software. To study the effect of inhibitors, cells were pretreated with the solution of inhibitors for 30 min, followed by the treatment with the peptide solution at 5 µM for 90 min. Inhibition of macropinocytosis was performed by using 5-(N-Ethyl-N-isopropyl)amiloride (EIPA) (500 µM) [46], of clathrin-mediated endocytosis by using chlorpromazine (CPZ) (300 µM) [47]. The caveolae/lipid raft-mediated endocytosis was prevented with methyl-β-cyclodextrin (mBCD) (36 mM) [48], and colchicine (Col) (200 mM) was employed to determine the role of microtubules and consequently, the significance of pinocytosis [49]. To inhibit all endocytosis routes, sodium azide (NaN3) (500 µM) and 2-Deoxyglucose (DOG) (250 mM) was used.
The following endocytic inhibitors were used: EIPA (5-(N-ethyl-N-isopropyl) amiloride) as an inhibitor of macropinocytosis, chlorpromazine (CPZ) as an inhibitor of a clathrin-mediated endocytosis, and the cholesterol-depleting reagent methyl-beta-cyclodextrin (mBCD) was used to inhibit the caveolae-mediated endocytosis. Finally, colchicine (COL) was applied to inhibit microtubule formation.
A-431 cells were pretreated with the EIPA (500 µM), CPZ (300 µM), mBCD (36 mM), COL (200 mM), NaN3 (500 µM), and DOG (250 mM) for 30 min, followed by treatment with peptides (5 µM) for 90 min. Any significant difference from the control was determined by Student’s t-test (* p < 0.05). Data represent the mean ± standard deviation (SD).The asterisks show a significant difference between the control Pen(desMet) and its derivatives (* p < 0.05, ** p < 0.01, *** p < 0.001).
In addition, the A-431 cells were pretreated with sodium azide (NaN3) and 2-deoxyglucose (DOG) to study the energy-independent pathways. This pretreatment results in ATP depletion and therefore the inhibition of energy-dependent pathways (Figure 3).

Cf-RQIKI-azaGly-FQNRRKWKK-NH2 [Trp48aGlyPen(desMet), Cf-labelled Pen(desMet) with Trp48 replaced by aza-glycine]
Cellular uptake (in words) [1]: dramatically decreased the cellular uptake

Cf-RQIKIGFQNRRKWKK-NH2 [Trp48GlyPen(desMet), Cf-labelled Pen(desMet) with Trp48 replaced by glycine]
Cellular uptake (in words) [1]: dramatically decreased the cellular uptake

Cf-RQIKIWFQNRRK-azaGly-KK-NH2 [Trp56aGlyPen(desMet)]
Cellular uptake with NaN3 and DOG, % of the untreated control [2]: 97%
Effect of azide/DOG treatment on cellular uptake (in words) ([2]; NaN3 500 µM and DOG 250 mM pretreatment 30 min): did not have any effect

Cf-RQIKIWFQNRRKWKK-NH2 [Pen(desMet)]
Cellular uptake with NaN3 and DOG, % of the untreated control [2]: 79%

Cf-RQIKIWFQNRRKGKK-NH2 [Trp56GlyPen(desMet)]
Cellular uptake with NaN3 and DOG, % of the untreated control [2]: 50%
